From article PMC3814616, “BRAF inhibitors suppress apoptosis through off-target inhibition of JNK signaling” (eLife, 2013)

Columns and labels:
MAP4K5 = molecular target: T1, MAP4K5 (Homo sapiens, UniProt Q9Y4K4); experiment: Quantitative competitive binding assay (KINOMEscan)
T1 construct: purchased KINOMEscan (DiscoveRx), San Diego, CA

MAP4K2 = molecular target: T2, MAP4K2 (Homo sapiens, UniProt Q12851); experiment: as above
T2 construct: purchased KINOMEscan (DiscoveRx), San Diego, CA
T2 sequence (Q12851 1-820): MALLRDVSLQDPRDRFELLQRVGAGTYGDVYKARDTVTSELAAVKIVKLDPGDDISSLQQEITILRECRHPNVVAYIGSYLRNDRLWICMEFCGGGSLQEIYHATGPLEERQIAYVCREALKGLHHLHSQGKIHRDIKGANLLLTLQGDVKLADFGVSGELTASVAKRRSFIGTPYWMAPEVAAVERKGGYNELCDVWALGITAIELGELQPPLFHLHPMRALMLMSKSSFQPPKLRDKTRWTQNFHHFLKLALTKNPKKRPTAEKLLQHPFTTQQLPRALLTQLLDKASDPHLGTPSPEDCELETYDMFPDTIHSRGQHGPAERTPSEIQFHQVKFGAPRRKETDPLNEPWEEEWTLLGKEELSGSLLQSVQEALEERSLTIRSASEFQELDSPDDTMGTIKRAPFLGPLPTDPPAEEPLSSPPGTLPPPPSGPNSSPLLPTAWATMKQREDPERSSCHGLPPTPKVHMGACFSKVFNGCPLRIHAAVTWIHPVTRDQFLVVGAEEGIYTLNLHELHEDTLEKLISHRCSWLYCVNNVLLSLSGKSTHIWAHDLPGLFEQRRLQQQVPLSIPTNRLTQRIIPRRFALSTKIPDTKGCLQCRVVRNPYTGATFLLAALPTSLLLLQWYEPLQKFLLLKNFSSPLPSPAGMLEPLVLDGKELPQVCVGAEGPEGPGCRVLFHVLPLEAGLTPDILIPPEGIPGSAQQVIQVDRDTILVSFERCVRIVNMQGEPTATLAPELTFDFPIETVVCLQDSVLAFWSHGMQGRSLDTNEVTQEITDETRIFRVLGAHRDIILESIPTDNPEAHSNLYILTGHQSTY

NOXA = experiment: Western blot, UV-induced NOXA expression; format: cell-based, human; settings: cSCC and HaCaT cell lines, 1 μM
MAP3K1 = molecular target: T3, MAP3K1 (Homo sapiens, UniProt Q13233); experiment: Quantitative competitive binding assay (KINOMEscan)
T3 construct: purchased KINOMEscan (DiscoveRx), San Diego, CA

RIPK1 = molecular target: T4, RIPK1 (Homo sapiens, UniProt Q13546); experiment: as above
T4 construct: purchased KINOMEscan (DiscoveRx), San Diego, CA
T4 sequence (Q13546 whole entry): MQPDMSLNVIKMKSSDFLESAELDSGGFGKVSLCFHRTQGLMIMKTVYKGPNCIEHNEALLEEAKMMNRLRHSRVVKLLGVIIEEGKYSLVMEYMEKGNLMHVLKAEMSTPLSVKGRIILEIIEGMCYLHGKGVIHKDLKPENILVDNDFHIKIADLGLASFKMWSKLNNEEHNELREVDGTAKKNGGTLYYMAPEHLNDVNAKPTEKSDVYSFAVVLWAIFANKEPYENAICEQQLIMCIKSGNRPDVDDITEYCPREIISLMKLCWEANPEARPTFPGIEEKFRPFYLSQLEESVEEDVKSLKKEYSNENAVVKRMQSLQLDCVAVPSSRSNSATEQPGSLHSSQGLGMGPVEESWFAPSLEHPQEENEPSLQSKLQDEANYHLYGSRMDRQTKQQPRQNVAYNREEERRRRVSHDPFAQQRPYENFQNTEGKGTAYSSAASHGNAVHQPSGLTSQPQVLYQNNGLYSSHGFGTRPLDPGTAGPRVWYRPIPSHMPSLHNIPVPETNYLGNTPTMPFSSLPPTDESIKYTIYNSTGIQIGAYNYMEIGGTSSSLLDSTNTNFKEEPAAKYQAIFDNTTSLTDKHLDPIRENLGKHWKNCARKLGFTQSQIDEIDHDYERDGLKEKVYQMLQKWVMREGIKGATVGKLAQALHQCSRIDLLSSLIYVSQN

MKK7 (MAP2K7) = molecular target: T5, MKK7 (MAP2K7) (Homo sapiens, UniProt O14733); experiment: as above
T5 construct: purchased KINOMEscan (DiscoveRx), San Diego, CA
T5 sequence (O14733 1-419): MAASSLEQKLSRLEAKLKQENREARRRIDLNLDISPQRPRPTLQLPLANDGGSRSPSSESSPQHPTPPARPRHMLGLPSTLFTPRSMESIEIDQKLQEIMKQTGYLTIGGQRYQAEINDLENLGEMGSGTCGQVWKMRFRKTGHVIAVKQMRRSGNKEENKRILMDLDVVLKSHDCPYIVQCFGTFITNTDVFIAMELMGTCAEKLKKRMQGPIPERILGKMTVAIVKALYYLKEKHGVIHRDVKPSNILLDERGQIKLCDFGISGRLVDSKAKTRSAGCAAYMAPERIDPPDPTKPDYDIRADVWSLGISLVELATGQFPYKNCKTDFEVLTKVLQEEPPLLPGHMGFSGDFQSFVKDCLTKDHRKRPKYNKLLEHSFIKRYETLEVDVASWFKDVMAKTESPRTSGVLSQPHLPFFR

BRK (PTK6) = BRK (PTK6) (Homo sapiens, UniProt Q13882); experiment: as above
PAK1 = molecular target: T6, PAK1 (Homo sapiens, UniProt Q13153); experiment: as above
T6 construct: purchased KINOMEscan (DiscoveRx), San Diego, CA
T6 sequence (Q13153 whole entry): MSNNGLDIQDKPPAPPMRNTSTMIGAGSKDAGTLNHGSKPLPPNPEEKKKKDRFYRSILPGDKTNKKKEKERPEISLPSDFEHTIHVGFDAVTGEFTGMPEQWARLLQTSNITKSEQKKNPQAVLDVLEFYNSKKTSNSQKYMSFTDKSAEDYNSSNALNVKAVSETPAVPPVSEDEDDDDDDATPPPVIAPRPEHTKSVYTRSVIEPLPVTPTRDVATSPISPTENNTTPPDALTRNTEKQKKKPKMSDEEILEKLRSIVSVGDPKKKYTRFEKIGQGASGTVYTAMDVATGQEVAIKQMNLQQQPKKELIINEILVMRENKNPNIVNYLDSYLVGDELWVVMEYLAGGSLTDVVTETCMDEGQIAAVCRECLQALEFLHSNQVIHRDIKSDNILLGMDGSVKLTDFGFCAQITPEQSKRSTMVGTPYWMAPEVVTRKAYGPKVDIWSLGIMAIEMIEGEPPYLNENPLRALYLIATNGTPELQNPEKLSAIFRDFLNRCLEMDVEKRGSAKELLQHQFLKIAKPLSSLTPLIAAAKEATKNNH

SRMS = SRMS (Homo sapiens, UniProt Q9H3Y6); experiment: as above
Chain of SRMS (Q9H3Y6 whole entry): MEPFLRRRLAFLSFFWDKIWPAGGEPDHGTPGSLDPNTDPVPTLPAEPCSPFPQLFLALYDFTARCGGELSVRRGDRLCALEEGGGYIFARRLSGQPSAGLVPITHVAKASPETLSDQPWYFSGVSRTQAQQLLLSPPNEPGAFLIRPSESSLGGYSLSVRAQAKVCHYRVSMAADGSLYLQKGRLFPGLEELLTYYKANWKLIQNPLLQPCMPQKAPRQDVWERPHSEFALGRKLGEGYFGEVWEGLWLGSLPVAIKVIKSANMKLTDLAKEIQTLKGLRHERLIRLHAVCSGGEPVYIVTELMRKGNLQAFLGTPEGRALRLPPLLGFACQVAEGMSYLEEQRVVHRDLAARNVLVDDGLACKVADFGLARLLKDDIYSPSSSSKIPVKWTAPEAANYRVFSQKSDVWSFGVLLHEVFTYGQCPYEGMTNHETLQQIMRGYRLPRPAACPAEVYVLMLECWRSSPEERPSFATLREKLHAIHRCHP

MINK (MINK1) = molecular target: T7, MINK (MINK1) (Homo sapiens, UniProt Q8N4C8); experiment: as above
T7 construct: purchased KINOMEscan (DiscoveRx), San Diego, CA

MLK2 (MAP3K10) = molecular target: T8, MLK2 (MAP3K10) (Homo sapiens, UniProt Q02779); experiment: as above
T8 construct: purchased KINOMEscan (DiscoveRx), San Diego, CA

BLK = molecular target: T9, BLK (Homo sapiens, UniProt P51451); experiment: as above
T9 construct: purchased KINOMEscan (DiscoveRx), San Diego, CA
T9 sequence (P51451 whole entry): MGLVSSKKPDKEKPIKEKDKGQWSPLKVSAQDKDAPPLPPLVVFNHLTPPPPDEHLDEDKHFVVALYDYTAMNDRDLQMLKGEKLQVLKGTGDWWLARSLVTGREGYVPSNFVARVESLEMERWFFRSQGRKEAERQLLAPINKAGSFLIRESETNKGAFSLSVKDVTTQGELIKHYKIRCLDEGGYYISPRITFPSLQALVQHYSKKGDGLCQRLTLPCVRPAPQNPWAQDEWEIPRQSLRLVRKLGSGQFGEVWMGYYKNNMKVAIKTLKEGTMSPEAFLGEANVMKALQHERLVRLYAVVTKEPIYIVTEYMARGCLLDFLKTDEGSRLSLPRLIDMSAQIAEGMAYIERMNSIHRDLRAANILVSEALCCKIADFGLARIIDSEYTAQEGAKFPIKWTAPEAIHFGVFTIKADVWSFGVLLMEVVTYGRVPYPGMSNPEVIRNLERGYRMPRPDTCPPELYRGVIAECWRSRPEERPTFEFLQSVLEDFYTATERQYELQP

MAP3K3 = molecular target: T10, MAP3K3 (Homo sapiens, UniProt Q99759); experiment: as above
T10 construct: purchased KINOMEscan (DiscoveRx), San Diego, CA

MAP3K4 = molecular target: T11, MAP3K4 (Homo sapiens, UniProt Q9Y6R4); experiment: as above
T11 construct: purchased KINOMEscan (DiscoveRx), San Diego, CA
T11 sequence (Q9Y6R4 whole entry): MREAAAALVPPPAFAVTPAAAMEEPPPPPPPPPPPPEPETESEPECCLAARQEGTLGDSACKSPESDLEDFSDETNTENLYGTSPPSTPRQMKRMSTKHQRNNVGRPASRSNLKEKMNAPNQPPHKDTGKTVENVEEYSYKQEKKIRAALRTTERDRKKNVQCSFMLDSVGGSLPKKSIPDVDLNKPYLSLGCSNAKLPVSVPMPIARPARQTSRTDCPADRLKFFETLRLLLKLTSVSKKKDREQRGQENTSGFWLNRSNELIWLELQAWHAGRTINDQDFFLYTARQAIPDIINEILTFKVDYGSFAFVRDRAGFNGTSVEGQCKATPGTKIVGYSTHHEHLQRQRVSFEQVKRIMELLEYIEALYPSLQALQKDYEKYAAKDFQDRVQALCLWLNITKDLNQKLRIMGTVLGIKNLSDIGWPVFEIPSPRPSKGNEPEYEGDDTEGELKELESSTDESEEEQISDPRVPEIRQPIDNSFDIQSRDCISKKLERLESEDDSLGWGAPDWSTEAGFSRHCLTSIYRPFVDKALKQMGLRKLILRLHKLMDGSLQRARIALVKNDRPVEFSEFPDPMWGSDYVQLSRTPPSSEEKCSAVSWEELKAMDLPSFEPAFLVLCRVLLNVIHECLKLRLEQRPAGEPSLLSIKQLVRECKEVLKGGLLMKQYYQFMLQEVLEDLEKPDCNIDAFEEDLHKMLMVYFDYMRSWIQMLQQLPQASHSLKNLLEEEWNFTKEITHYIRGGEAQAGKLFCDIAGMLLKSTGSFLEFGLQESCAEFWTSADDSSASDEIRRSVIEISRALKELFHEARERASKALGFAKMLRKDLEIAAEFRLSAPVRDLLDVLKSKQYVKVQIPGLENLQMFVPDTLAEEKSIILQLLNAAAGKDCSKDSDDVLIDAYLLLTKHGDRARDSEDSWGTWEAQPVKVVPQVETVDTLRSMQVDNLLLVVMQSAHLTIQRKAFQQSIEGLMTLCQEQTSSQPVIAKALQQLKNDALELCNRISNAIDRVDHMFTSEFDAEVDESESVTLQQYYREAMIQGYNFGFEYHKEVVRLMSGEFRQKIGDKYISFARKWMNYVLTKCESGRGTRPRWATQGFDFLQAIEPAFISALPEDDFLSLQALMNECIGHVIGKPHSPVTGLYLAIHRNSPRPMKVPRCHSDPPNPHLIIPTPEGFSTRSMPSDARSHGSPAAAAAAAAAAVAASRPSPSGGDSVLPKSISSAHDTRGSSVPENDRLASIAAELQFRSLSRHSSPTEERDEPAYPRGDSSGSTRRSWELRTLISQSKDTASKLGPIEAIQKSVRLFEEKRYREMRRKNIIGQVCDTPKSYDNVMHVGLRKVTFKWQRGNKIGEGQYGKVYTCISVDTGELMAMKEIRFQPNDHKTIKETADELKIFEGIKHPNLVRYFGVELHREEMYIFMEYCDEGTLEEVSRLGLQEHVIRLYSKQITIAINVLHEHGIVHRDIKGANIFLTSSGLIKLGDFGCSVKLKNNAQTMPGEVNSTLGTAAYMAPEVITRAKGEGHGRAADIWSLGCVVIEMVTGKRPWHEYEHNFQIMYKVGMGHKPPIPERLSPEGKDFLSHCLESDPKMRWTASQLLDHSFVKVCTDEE

MLK1 (MAP3K9) = molecular target: T12, MLK1 (MAP3K9) (Homo sapiens, UniProt P80192); experiment: as above
T12 construct: purchased KINOMEscan (DiscoveRx), San Diego, CA

[1] = estimated Kd, averaged pointwise estimates, transformed Hill equation, read-out: Calculated estimate of IC50
[2] = read-out: Percent control (50 nM)
[3] = read-out: Percent control (200 nM)
[4] = read-out: Percent control (1000 nM)
[5] = read-out: Percent control (10 μM)

T1 sequence (Q9Y4K4 whole entry): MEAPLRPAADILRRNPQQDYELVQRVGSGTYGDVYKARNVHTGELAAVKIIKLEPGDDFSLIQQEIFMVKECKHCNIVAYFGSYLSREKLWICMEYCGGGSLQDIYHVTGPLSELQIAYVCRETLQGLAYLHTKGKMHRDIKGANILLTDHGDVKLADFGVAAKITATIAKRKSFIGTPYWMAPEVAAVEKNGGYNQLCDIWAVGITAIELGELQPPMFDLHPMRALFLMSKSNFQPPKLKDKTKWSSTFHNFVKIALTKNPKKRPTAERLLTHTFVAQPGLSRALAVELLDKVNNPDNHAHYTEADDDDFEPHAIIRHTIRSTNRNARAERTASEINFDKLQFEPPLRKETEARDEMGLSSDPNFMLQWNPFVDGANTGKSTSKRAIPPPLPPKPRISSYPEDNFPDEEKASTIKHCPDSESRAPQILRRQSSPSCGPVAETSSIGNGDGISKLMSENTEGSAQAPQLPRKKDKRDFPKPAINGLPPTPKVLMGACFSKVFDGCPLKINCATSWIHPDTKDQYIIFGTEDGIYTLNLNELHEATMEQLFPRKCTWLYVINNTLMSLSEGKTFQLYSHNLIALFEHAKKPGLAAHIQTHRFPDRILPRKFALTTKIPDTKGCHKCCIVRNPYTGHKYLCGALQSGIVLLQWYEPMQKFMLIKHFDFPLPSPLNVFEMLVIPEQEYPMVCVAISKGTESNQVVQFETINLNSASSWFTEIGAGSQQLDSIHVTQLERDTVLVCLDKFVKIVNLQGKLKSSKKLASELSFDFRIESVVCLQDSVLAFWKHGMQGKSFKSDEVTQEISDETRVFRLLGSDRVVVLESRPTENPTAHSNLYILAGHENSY

Compound: CCCS(=O)(=O)Nc1ccc(F)c(C(=O)c2c[nH]c3ncc(Cl)cc23)c1F [PLX4720]
- IC50 (MAP4K5; [1]): 1260 nM
- remaining binding at 0.05 µM (MAP4K5; [2]): 96%
- remaining binding at 0.2 µM (MAP4K5; [3]): 100%
- remaining binding at 1 µM (MAP4K5; [4]): 63%
- remaining binding at 10 µM (MAP4K5; [5]): 8%
- remaining binding at 0.05 µM (MAP4K2; [2]): 98%
- remaining binding at 0.2 µM (MAP4K2; [3]): 100%
- remaining binding at 1 µM (MAP4K2; [4]): 99%
- remaining binding at 10 µM (MAP4K2; [5]): 67%
- UV-induced NOXA expression (NOXA): suppressed
- remaining binding at 0.05 µM (MAP3K1; [2]): 96%
- remaining binding at 0.2 µM (MAP3K1; [3]): 100%
- remaining binding at 1 µM (MAP3K1; [4]): 92%
- remaining binding at 10 µM (MAP3K1; [5]): 84%
- remaining binding at 0.05 µM (RIPK1; [2]): 99%
- remaining binding at 0.2 µM (RIPK1; [3]): 87%
- remaining binding at 1 µM (RIPK1; [4]): 85%
- remaining binding at 10 µM (RIPK1; [5]): 50%
- remaining binding at 0.05 µM (MKK7 (MAP2K7); [2]): 100%
- remaining binding at 0.2 µM (MKK7 (MAP2K7); [3]): 100%
- remaining binding at 1 µM (MKK7 (MAP2K7); [4]): 100%
- remaining binding at 10 µM (MKK7 (MAP2K7); [5]): 84%
- IC50 (BRK (PTK6); [1]): 30.4 nM
- remaining binding at 0.05 µM (BRK (PTK6); [2]): 47%
- remaining binding at 0.2 µM (BRK (PTK6); [3]): 14%
- remaining binding at 1 µM (BRK (PTK6); [4]): 2.4%
- remaining binding at 10 µM (BRK (PTK6); [5]): 0.2%
- remaining binding at 0.05 µM (PAK1; [2]): 93%
- remaining binding at 0.2 µM (PAK1; [3]): 97%
- remaining binding at 1 µM (PAK1; [4]): 83%
- remaining binding at 10 µM (PAK1; [5]): 22%
- IC50 (SRMS; [1]): 0.64 nM
- remaining binding at 0.05 µM (SRMS; [2]): 1.9%
- remaining binding at 0.2 µM (SRMS; [3]): 0.55%
- remaining binding at 1 µM (SRMS; [4]): 0.05%
- remaining binding at 10 µM (SRMS; [5]): 0%
- remaining binding at 0.05 µM (MINK (MINK1); [2]): 89%
- remaining binding at 0.2 µM (MINK (MINK1); [3]): 100%
- remaining binding at 1 µM (MINK (MINK1); [4]): 98%
- remaining binding at 10 µM (MINK (MINK1); [5]): 55%
- remaining binding at 0.05 µM (MLK2 (MAP3K10); [2]): 100%
- remaining binding at 0.2 µM (MLK2 (MAP3K10); [3]): 82%
- remaining binding at 1 µM (MLK2 (MAP3K10); [4]): 100%
- remaining binding at 10 µM (MLK2 (MAP3K10); [5]): 76%
- IC50 (BLK; [1]): 447 nM
- remaining binding at 0.05 µM (BLK; [2]): 91%
- remaining binding at 0.2 µM (BLK; [3]): 78%
- remaining binding at 1 µM (BLK; [4]): 32%
- remaining binding at 10 µM (BLK; [5]): 1%
- remaining binding at 0.05 µM (MAP3K3; [2]): 94%
- remaining binding at 0.2 µM (MAP3K3; [3]): 97%
- remaining binding at 1 µM (MAP3K3; [4]): 98%
- remaining binding at 10 µM (MAP3K3; [5]): 75%
- remaining binding at 0.05 µM (MAP3K4; [2]): 100%
- remaining binding at 0.2 µM (MAP3K4; [3]): 100%
- remaining binding at 1 µM (MAP3K4; [4]): 100%
- remaining binding at 10 µM (MAP3K4; [5]): 65%
- IC50 (MLK1 (MAP3K9); [1]): > 10000 nM
- remaining binding at 0.05 µM (MLK1 (MAP3K9); [2]): 100%
- remaining binding at 0.2 µM (MLK1 (MAP3K9); [3]): 100%
- remaining binding at 1 µM (MLK1 (MAP3K9); [4]): 100%
- remaining binding at 10 µM (MLK1 (MAP3K9); [5]): 100%
